Measurements taken from BindingDB's records for doi:10.7270/Q2R78CQV (Burnham Center For Chemical Genomics, 2011).

Molecular target: Hexokinase HKDC1 [W721R] (Homo sapiens, UniProt Q2TB90, W721R)
Assay: activation of HKDC1 glucose phosphorylation – biochemical, W721R variant, dose response (AID 504730)

Chain of Hexokinase HKDC1 [W721R] (Q2TB90 whole entry W721R): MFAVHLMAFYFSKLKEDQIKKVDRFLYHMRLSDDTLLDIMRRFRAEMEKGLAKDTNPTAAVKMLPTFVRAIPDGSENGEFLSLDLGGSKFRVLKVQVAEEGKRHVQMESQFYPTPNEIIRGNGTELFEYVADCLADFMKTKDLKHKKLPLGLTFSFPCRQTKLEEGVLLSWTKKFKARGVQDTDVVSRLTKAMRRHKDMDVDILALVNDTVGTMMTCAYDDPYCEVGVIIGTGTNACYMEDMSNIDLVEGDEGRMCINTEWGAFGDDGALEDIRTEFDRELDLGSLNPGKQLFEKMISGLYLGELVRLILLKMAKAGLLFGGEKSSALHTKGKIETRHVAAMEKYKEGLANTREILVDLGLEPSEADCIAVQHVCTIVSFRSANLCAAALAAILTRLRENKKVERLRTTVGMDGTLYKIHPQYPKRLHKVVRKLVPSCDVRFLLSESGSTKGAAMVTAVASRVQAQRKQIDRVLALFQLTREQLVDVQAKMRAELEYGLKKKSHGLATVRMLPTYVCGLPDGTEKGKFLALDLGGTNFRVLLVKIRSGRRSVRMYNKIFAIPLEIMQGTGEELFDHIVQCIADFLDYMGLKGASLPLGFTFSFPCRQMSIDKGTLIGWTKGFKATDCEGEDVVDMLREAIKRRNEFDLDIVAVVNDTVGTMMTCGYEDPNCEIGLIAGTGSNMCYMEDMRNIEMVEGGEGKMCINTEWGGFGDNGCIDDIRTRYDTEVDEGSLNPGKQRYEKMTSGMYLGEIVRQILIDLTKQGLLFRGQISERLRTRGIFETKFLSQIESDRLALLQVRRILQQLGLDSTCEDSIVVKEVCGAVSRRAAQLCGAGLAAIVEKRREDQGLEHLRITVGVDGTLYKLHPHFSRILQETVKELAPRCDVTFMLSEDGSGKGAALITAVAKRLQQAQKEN

EC50	Structure (SMILES)
> 80 µM	Nn1cnnc1N=NCc1cc(Br)cc(Br)c1O
2.24 µM	CC(N=Nc1nc2ccccc2o1)c1cc2ccccc2cn1 (centres undefined)
26.5 µM	CCCOC1=CC(=O)C(C=NNC(=S)Nc2ccccc2[N+](=O)[O-])C=C1 (centres undefined) [1-(2-nitrophenyl)-3-[[(E)-(6-oxo-4-propoxy-1-cyclohexa-2,4-dienylidene)methyl]amino]thiourea]
> 80 µM	COCc1cc(C2C(C(=O)c3ccco3)C(=O)C(=O)N2CCOCCO)ccc1O (centres undefined) [3-(furan-2-carbonyl)-4-hydroxy-1-[2-(2-hydroxyethoxy)ethyl]-2-[4-hydroxy-3-(methoxymethyl)phenyl]-2H-pyrrol-5-one]
19.9 µM	CC(C)(C)c1nnc(N=NCc2cc(Br)ccc2O)n(N)c1=O [4-azanyl-3-[2-[(E)-(3-bromanyl-6-oxidanylidene-cyclohexa-2,4-dien-1-ylidene)methyl]hydrazinyl]-6-tert-butyl-1,2,4-triazin-5-one]
6.69 µM	Cc1[nH]n(-c2ccccc2)c(=O)c1CN=Nc1nncc(-c2ccccc2)n1 [(4E)-5-methyl-2-phenyl-4-[[(5-phenyl-1,2,4-triazin-3-yl)hydrazo]methylidene]-3-pyrazolone]
24.7 µM	O=C1C(=C2C(=O)c3ccccc3C2=O)Nc2ccccc21 [MLS000071738]
9.25 µM	Oc1c(Cl)c(N=Cc2cccnc2)c(O)c2ccccc12 [MLS001195521]
51.6 µM	CC(=O)Oc1cccc2c(O)c3c(c(O)c12)CC=CC3OC(C)=O (centres undefined) [SMR001574207]
